Patent US11358971B2, “Prodrugs of modulators of the NMDA receptor” (H. Lundbeck A/S, priority 2019, dated 2022)
Entries after “also recorded” stand apart in the source; their conditions may differ.

Tests used:
[1] = biological target: NR1s1s2 (ligand binding domains of the NMDA receptor), glycine site; details: radioligand parameter stated in assay method; obtained from Sigma Aldrich; cited from earlier work
[2] = test system: tonic hind limb extensor seizure; assay: Maximal Electro Shock Threshold (MEST); type: in vivo; details: 3, 10 and 30 mg/kg subcutaneously, 30 min before test; vs vehicle 10% HPβCD; rats
From the text: Naïve rats were acclimatised to the procedure room in their home cages, with food and water available ad libitum. All rats were weighed at the beginning of the study and randomly assigned to treatment groups. […] Rats were individually assessed for the production of a tonic hind limb extensor seizure using a Hugo Sachs Electronik stimulator, which delivered an adjustable constant current (1-300 mA) of 0.3 seconds duration via corneal electrodes. The stimulus intensity was varied, from a typical baseline of 25 mA, by an ‘up and down’ method of shock titration. […] This procedure continued for all rats within a treatment group. […] Significant differences between drug-treated animals and vehicle were assessed according to Litchfield and Wilcoxon (Litchfield J, Wilcoxon F. A simplified method for evaluating dose-effect experiments. J Pharmacol Exp Ther. 1949; 96(1): 99-113).

[3] = test system: time of immobility; assay: Forced swim test; type: in vivo; details: 3, 10 and 30 mg/kg subcutaneously, 24 h before test; vs vehicle; Wistar Kyoto rats
Protocol: Adult male Wistar Kyoto rats from Envigo (former Harlan; Blackthorn, UK). Animals are maintained under controlled conditions (21±1° C., 37±1%, 12/12 h light/dark cycles, lights on at 8 a.m.) with food and water available ad libitum. In all studies WKY rats were randomly allocated to a maximum of 5 treatment groups (n=20 per group). […] The dosing of the animals were performed by subcutaneous injection 24 h before test g. The WKY rats were individually placed into a glass cylinder (50 cm height, 20 cm diameter) containing 30 cm of water at 25±1° C. for a 5 min test phase. The test session recorded (using a video camera placed above the cylinder for subsequent behavioural analysis) the time of immobility (s). One-way analysis of variance (ANOVA) was used to detect statistical significance in the FST data. The Fisher least significant difference (LSD) test was used for post hoc analyses. Probability values of P<0.05 were considered as statistically significant. Statistical analyses were performed using SPSS.

[4] = test system: high frequency oscillation; assay: Resting state Electroencephalography (rsEEG); type: in vivo; details: 20 mg/kg subcutaneously in 10% HPβCD; 30-40 min after dosing; vs vehicle; rats
Protocol: On the day of surgery, rats (270-300 g) were anesthetized with a 0.25 ml/100 g subcutaneous (SC) injection of 1:1 hypnorm/Dormicum and mounted in a stereotaxic frame (David Kopf Instruments, Tujunga, Calif., USA) with blunt ear bars. Marcain (0.2 ml SC) was injected under the scalp, and gel (Neutral Opthta Eye Gel) put on the eyes to prevent the mucous membrane drying out. Holes were burred in the skull to allow for placement of two depth electrodes (E363-series; PlasticsOne, Roanoke, Va., USA) in left and right pre/infralimbic PFC (AP: 3.0 mm from the bregma suture, Medial-Lateral (ML): +/−0.7 mm from the sagittal suture and DV: 3.0 mm from the dura) and thalamus (AP: −2.8 mm from the bregma suture, ML: +0.7 mm from the sagittal suture and DV: 4.4 mm from the dura) and three screw electrodes at vertex (AP: −2 mm from the bregma suture, ML: +2.0 mm from the sagittal suture), a reference electrode (AP: +8.0 mm and ML: −2.0 mm), and a ground electrode (AP: −5 mm, ML: +5 mm). […] Animal bodyweights were recorded daily. […]
The development of the locomotive state-detection algorithm and the state-specific pharmaco-EEG analyses were carried out in MATLAB R2017a (The MathWorks, Inc., Natick, Mass., USA) using functions from the sigTOOL toolbox. Significant differences between drug-treated animals and vehicle were assessed according to Turkey's honest significant difference.

[5] = MDR1-MDCKII permeability assay Papp(AB); type: in vitro ADME; details: dog, MDCK-MDR1, prodrug compounds, A to B, 60-minute incubation at 37° C., pH 7.4
Protocol: MDR1-MDCKII Permeability Assay Papp(AB)
MDR1-MDCKII cells (obtained from Piet Borst at the Netherlands Cancer Institute) were seeded onto […] (PET) in 96-well BD insert systems at 2.5×10^5 cells/mL until to 4-7 days for confluent cell monolayer formation.
Test compounds were diluted with the transport buffer (HBSS with 10 mM HEPES, added 1% BSA, pH 7.4) from DMSO stock solution to a concentration of 0.5 μM (DMSO: 0.4%) and applied to the apical or basolateral side of the cell monolayer. Permeation of the test compounds from A to B direction or B to A direction was determined in triplicate over a 60-minute incubation at 37° C. and 5% CO2 with a relative humidity of 95%. In addition, the efflux ratio of each compound was also determined. Test and reference compounds were quantified by LC/MS/MS analysis based on the peak area ratio of analyte/IS.
Reference compounds: Fenoterol (conc: 2 μM) was used as low permeability marker and Propranolol (conc: 2 μM) was used as high permeability marker in A to B Permeability, furthermore was bi-directional permeability of a P-glycoprotein substrate (digoxin) included.
The apparent permeability coefficient Papp (cm/s) was calculated using the equation: Papp=(dCr/dt)×Vr/(A×C0) (1) Where dCr/dt is the cumulative concentration of compound in the receiver chamber as a function of time (μM/s); Vr is the solution volume in the receiver chamber (0.05 mL on the apical side; 0.25 mL on the basolateral side); A is the surface area for the transport, i.e. 0.0804 cm^2 for the area of the monolayer; C0 is the initial concentration in the donor chamber (μM).
The efflux was calculated using the equation: Efflux ratio=Papp(BA)/Papp(AB) (2)
The mass balance (Recovery) was calculated. The mass balance is defined as: the sum of the compound recovered from the acceptor chamber and the compound remaining in the donor chamber at the end of the experiment, divided by the initial donor amount. The mass balance should be as high as possible. Criterion: Recovery <50% is insufficient.
To evaluate the integrity of the cell monolayer, Lucifer Yellow permeability was measured in one direction (A to B). The percentage of Lucifer Yellow was calculated in control wells as an estimation of the overall cell membrane integrity. The wells are considered fully acceptable if % Lucifer Yellow is less than 2%.
The experiments for the prodrugs were the same as for the parent compounds exemplified in Table 3a.

[6] = In vivo exposure (plasma and brain) after intravenous bolus injection; details: compound quantified 1c; dose 2 mg/kg intravenous bolus; male Sprague Dawley rats
Protocol: Brain disposition of test compound was evaluated in male Sprague Dawley rats (standard body weight range). Briefly, discrete (nominal dose: 2 mg/kg, 2 ml/kg) or cassetted (nominal dose: 1 mg/kg/compound, 2 ml/kg) test compounds were administered by intravenous bolus injection (formulated in 10% hydroxypropyl-β-cyclodextrin or 10-20% Captisol, pH=3).
Serial blood samples were collected from a lateral tail vein at designated time points (n=3 per time point) then rats were put under deep isofluorane induced anaesthesia prior to removal of brains (n=3 per time point). Blood samples were stabilized against further metabolism ex vivo by addition of an esterase inhibitor (100 μM diisopropyl fluorophosphate). […]
Seven calibration standards and three QC samples were prepared in plasma and brain homogenate, respectively, in the concentration range 10-10000 ng/mL. […] Study samples with expected concentration above upper limit of quantification were diluted with blank matrix. […]
Samples were analyzed using an AB Sciex API4000 triple quadrupole (TQ) mass spectrometer operated in positive and negative electrospray ionization and MS/MS mode (multiple reaction monitoring, MRM). […] Quantification was performed by linear regression, 1/x2 weighting.
Concentrations of prodrug and drug in plasma and brain were quantified against matrix matched calibration standards.

SMILES: O=C(O)C(=Cc1c(C(=O)O)[nH]c2cc(Cl)cc(Cl)c12)c1ccccc1 [[3H]-MDL-105,519]
- Kd [1]: 1.3 nM

SMILES: COC(=O)[C@H](N)CNC(=O)c1cc2nccc(C)c2s1 [Compound 2c, Methyl (R)-2-amino-3-(7-methylthieno[3,2-b]pyridine-2-carboxamido)propanoate]
- effects on the maximal electro shock threshold (seizure threshold CC50 current) [2]: dose dependent effects
- time of immobility in forced swim test [3]: significant effects in time of immobility at the 30 mg/kg dose
- effects in resting state Electroencephalography (high frequency oscillation, baseline-normalized power) [4]: significant effects in high frequency oscillation; also recorded: significant effects in resting state Electroencephalography

SMILES: Cc1ccnc2cc(C(=O)NC[C@@H](N)C(=O)OC(C)C)sc12 [Compound 2f, Isopropyl (R)-2-amino-3-(7-methylthieno[3,2-b]pyridine-2-carboxamido)propanoate]
- Papp A→B at 60 min, 0.5 µM [5]: 18.4 ×10⁻⁶ cm/s
- Total Brain concentration (ng/mL) 30 min post dose [6]: BLOQ
